# Measured values taken from patent publication US10358435B2, “Triazolyl pyrimidinone compounds as PDE2 inhibitors” (Merck Sharp & Dohme Corp., priority 2015, dated 2019).
# pKi: −log10 of the molar value.
# Target: human PDE2A1 (Homo sapiens (Human), UniProt O00408)
# Assay: IMAP fluorescence polarization assay, human PDE2A1 (PDE selectivity panel)
# Type: biochemical
# Settings: not given
# Experimental: The activity of the compounds in accordance with the present invention as PDE2 inhibitors may be readily determined using a fluorescence polarization (FP) methodology (Huang, W., et al., J. Biomol Screen, 2002, 7: 215).
# Dose-inhibition profiles for each compound were characterized by fitting the mP data to a four-parameter equation given below.
# Selectivity for PDE2, as compared to other PDE families, was assessed using the IMAP® technology. Human PDE10A2 enzyme was prepared from cytosolic fractions of transiently transfected HEK cells. All other PDE's were GST Tag human enzyme expressed in insect cells and were obtained from BPS Bioscience (San Diego, Calif.): PDE1A (Cat#60010), human PDE2A1 (Cat#60020), PDE3A (Cat#60030), PDE4A1A (Cat#60040), PDE5A1 (Cat#60050), PDE6C (Cat#60060), PDE7A (Cat#60070), PDE8A1 (Cat#60080), PDE9A2 (Cat#60090), PDE11A4 (Cat#60110).
# Assays for PDE 1 through 11 were performed in parallel at room temperature in 384-well microtiter plates with an incubation volume of 20.2 μL. Solutions of test compounds were prepared in DMSO and serially diluted with DMSO to yield 30 μL of each of ten solutions differing by 3-fold in concentration, at 32 serial dilutions per plate. […] A Labcyte POD 810 (Labcyte, Sunnyvale, Calif.) was used to dispense 200 nL from each well of the titration plate to make eleven copies of the assay plate for each titration, one copy for each PDE enzyme. A solution of each enzyme (dilution from aliquots, sufficient to produce 20% substrate conversion) and a separate solution of FAM-labeled cAMP or FAM-labeled cGMP from Molecular Devices (Sunnyvale, Calif., product # R7506 or cGMP#R7508), at a final concentration of 50 nM were made in the assay buffer (10 mM Tris HCl, pH 7.2, 10 mM MgCl2, 0.05% NaN3 0.01% Tween-20, and 1 mM DTT). Note that the substrate for PDE2 is 50 nM FAM cAMP containing 1000 nM of cGMP. The enzyme and the substrate were then added to the assay plates in two consecutive additions of 10 μL and then shaken to mix. The reaction was allowed to proceed at room temperature for 60 minutes. A binding solution was then made from the kit components, comprised of 80% Solution A, 20% Solution B and binding reagent at a volume of 1/600 the total binding solution. The enzymatic reaction was stopped by addition of 60 μL of the binding solution to each well of the assay plate. The plates were sealed and shaken for 10 seconds. The plates were incubated at room temperature for one hour, then the parallel and perpendicular fluorescence was measured using a Tecan Genios Pro plate reader (Tecan, Switzerland). The apparent inhibition constants for the compounds against all 11 PDE's was determined from the parallel and perpendicular fluorescent readings as described for PDE10 FP assay using the following apparent KM values for each enzyme and substrate combination: PDE1A (FAM cGMP) 70 nM, human PDE2A1 (FAM cAMP) 10,000 nM, PDE3A (FAM cAMP) 50 nM, PDE4A1A (FAM cAMP) 1500 nM, PDE5A1 (FAM cGMP) 400 nM, PDE6C (FAM cGMP) 700 nM, PDE7A (FAM cAMP) 150 nM, PDE8A1 (FAM cAMP) 50 nM, PDE9A2 (FAM cGMP) 60 nM, PDE10A2 (FAM cAMP) 150 nM, PDE11A4 (FAM cAMP) 1000 nM. The intrinsic PDE2 inhibitory activity of a compound which may be used in accordance with the present invention may be determined by these assays.
# human PDE2A1, sequence (O00408 other isoform, or with tags, fused parts or gaps): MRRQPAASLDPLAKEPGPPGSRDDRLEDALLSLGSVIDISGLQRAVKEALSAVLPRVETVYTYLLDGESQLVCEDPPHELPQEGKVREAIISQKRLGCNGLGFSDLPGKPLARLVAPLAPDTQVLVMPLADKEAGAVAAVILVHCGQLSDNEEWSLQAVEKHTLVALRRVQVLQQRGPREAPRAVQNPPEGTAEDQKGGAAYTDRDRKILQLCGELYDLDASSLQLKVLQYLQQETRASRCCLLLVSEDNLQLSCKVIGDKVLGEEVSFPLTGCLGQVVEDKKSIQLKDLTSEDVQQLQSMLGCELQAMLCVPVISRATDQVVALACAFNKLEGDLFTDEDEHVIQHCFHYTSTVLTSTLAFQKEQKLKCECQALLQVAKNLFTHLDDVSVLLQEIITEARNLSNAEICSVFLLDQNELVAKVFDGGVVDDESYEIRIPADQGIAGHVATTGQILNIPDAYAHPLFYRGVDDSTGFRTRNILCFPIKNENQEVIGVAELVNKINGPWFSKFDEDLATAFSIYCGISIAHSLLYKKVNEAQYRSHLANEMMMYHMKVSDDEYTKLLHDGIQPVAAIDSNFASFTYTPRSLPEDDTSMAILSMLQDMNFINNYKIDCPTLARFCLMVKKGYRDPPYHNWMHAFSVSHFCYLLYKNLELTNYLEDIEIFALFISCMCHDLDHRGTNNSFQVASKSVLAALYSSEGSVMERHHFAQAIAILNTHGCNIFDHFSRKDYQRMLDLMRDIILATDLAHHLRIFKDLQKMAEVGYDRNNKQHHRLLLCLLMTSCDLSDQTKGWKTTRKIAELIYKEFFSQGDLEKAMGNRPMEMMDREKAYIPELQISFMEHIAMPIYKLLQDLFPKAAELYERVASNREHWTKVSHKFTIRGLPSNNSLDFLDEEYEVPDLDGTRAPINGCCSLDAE
row,SMILES,inhibition at 3 µM
1,"Cc1nc(-c2nnn3c2CCCC3c2ccc(C(F)(F)F)cc2F)cc(=O)[nH]1 (single isomer, unassigned) [Example 49, (R)- or (S)-6-(7-(2-fluoro-4-(trifluoromethyl)phenyl)-4,5,6,7-tetrahydro-[1,2,3]triazolo[1,5-a]pyridin-3-yl)-2-methylpyrimidin-4(3H)-one]",33%
2,"Cc1nc(-c2nnc(C(C)c3ccc(C(F)(F)F)cc3Cl)n2C)cc(=O)[nH]1 (single isomer, unassigned) [Example 67, (R)- or (S)-6-(5-(1-(2-chloro-4-(trifluoromethyl)-phenyl)ethyl)-4-methyl-4H-1,2,4-triazol-3-yl)-2-methylpyrimidin-4(3H)-one]",17%
3,"Cc1nc(-c2nnn3c2CCC[C@H]3c2ccc(C(F)(F)F)cc2)cc(=O)[nH]1 (mixture of isomers) [Example 47, (R)- and (S)-2-Methyl-6-(7-(4-(trifluoromethyl)phenyl)-4,5,6,7-tetrahydro-[1,2,3]triazolo[1,5-a]pyridin-3-yl)pyrimidin-4(3H)-one]",48%

# Same assay, conditions: FAM cAMP 50 nM with 1000 nM cGMP
row,SMILES,pKi
1,"Cc1nc(-c2nnn3c2COCC3c2ccc(C(F)(F)F)cc2)cc(=O)[nH]1 (centres unmarked) [Example 53, 2-methyl-6-(7-(4-(trifluoromethyl)phenyl)-6,7-dihydro-4H-[1,2,3]triazolo[5,1-c][1,4]oxazin-3-yl)pyrimidin-4(3H)-one]",7.14
2,"Cc1nc(-c2nnc(C(C)c3ccc(C(F)(F)F)cc3F)[nH]2)cc(=O)[nH]1 (single isomer, unassigned) [Example 61, (R)- or (S)-6-(5-(1-(2-fluoro-4-(trifluoromethyl)-phenyl)ethyl)-4H-1,2,4-triazol-3-yl)-2-methylpyrimidin-4(3H)-one]",7.28
3,"CCCCc1c(-c2cc(=O)[nH]c(C)n2)nnn1C(C)c1ccc(C(F)(F)F)cc1Cl (single isomer, unassigned) [Example 46, (S)- or (R)-6-(5-butyl-1-(1-(2-chloro-4-(trifluoromethyl)phenyl)ethyl)-1H-1,2,3-triazol-4-yl)-2-methylpyrimidin-4(3H)-one]",5.96
4,"Cc1nc(-c2nnn3c2CCC3(C)c2ccc(C(F)(F)F)cc2F)cc(=O)[nH]1 (single isomer, unassigned) [Example 98, (S)- or (R)-6-(6-(2-Fluoro-4-(trifluoromethyl)phenyl)-6-methyl-5,6-dihydro-4H-pyrolo[1,2-c][1,2,3]triazol-3-yl)-2-methylpyrimidin-4(3H)-one]",6.66
5,"COc1cccc(Cc2nc(-c3nnn4c3CCCC4(C)c3ccc(C(F)(F)F)cc3F)cc(=O)[nH]2)c1 (single isomer, unassigned) [Example 91, (S)- or (R)-6-(7-(2-Fluoro-4-(trifluoromethyl)phenyl)-7-methyl-4,5,6,7-tetrahydro-[1,2,3]triazolo[1,5-a]pyridin-3-yl)-2-(3-methoxy-benzyl)pyrimidin-4(3H)-one]",9.25
6,"Cc1nc(-c2cnn(C(C)c3ccc(C(F)(F)F)cc3C)n2)cc(=O)[nH]1 (single isomer, unassigned) [Example 6, (S)- or (R)-2-methyl-6-(2-(1-(2-methyl-4-(trifluoromethyl)phenyl)ethyl)-2H-1,2,3-triazol-4-yl)pyrimidin-4(3H)-one]",~5.72
7,"Cc1nc(-n2ncc([C@H](C)c3ccc(C(F)(F)F)cc3Cl)n2)cc(=O)[nH]1 (single isomer, unassigned) [Example 82]",6.66
8,"Cc1nc(-c2nnc(C(C)c3ccc(C(F)(F)F)cc3Cl)[nH]2)cc(=O)[nH]1 (single isomer, unassigned) [Example 66, (S)- or (R)-6-(5-(1-(2-chloro-4-(trifluoromethyl)-phenyl)ethyl)-4H-1,2,4-triazol-3-yl)-2-methylpyrimidin-4(3H)-one]",6.28
9,"Cc1nc(-c2nnc(C(C)c3ccc(C(F)(F)F)cc3F)[nH]2)cc(=O)[nH]1 (single isomer, unassigned) [Example 62, (S)- or (R)-6-(5-(1-(2-fluoro-4-(trifluoromethyl)-phenyl)ethyl)-4H-1,2,4-triazol-3-yl)-2-methylpyrimidin-4(3H)-one]",6.41
10,"Cc1nc(-c2nnn3c2CCC[C@H]3c2ccc(C(F)(F)F)cc2)cc(=O)[nH]1 (single isomer, unassigned) [Example 48]",7.37
11,"Cc1nc(-c2cn([C@@H](C)c3ccc(C(F)(F)F)cc3Cl)nn2)cc(=O)[nH]1 (single isomer, unassigned) [Example 35]",7.38
12,"CCCCc1c(-c2cc(=O)[nH]c(C)n2)nnn1C(C)c1ccc(C(F)(F)F)cc1Cl (single isomer, unassigned) [Example 45, (R)- or (S)-6-(5-butyl-1-(1-(2-chloro-4-(trifluoromethyl)phenyl)ethyl)-1H-1,2,3-triazol-4-yl)-2-methylpyrimidin-4(3H)-one]",8.04
13,"CCc1ccc([C@]2(C)CCCc3c(-c4cc(=O)[nH]c(C)n4)nnn32)c(F)c1 (single isomer, unassigned) [Example 95]",8.74
14,"CCc1ccc(C(C)n2cc(-c3cc(=O)[nH]c(C)n3)nn2)c(Cl)c1 (single isomer, unassigned) [Example 20, (S)- or (R)-6-(1-(1-(2-chloro-4-ethylphenyl)ethyl)-1H-1,2,3-triazol-4-yl)-2-methylpyrimidin-4(3H)-one]",7.33
15,"Cc1nc(-c2nnc(C(C)c3ccc(C(F)(F)F)cc3F)n2C)cc(=O)[nH]1 (single isomer, unassigned) [Example 64, (S)- or (R)-6-(5-(1-(2-fluoro-4-(trifluoromethyl)-phenyl)ethyl)-4-methyl-4H-1,2,4-triazol-3-yl)-2-methylpyrimidin-4(3H)-one]",7.63
16,"COc1ccc(Cc2nc(-c3nnn4c3CCC[C@]4(C)c3ccc(C(F)(F)F)cc3F)cc(=O)[nH]2)cc1 (single isomer, unassigned) [Example 90]",5.72
17,"Cc1nc(-c2nnc3n2CCC[C@H]3c2ccc(C(F)(F)F)cc2)cc(=O)[nH]1 (single isomer, unassigned) [Example 70]",7.27
18,"Cc1nc(-n2ncc([C@H](C)c3ccc(C(F)(F)F)cc3Cl)n2)cc(=O)[nH]1 (single isomer, unassigned) [Example 83]",8.38
19,"Cc1nc(-c2cn(C(C)c3ccc(C(F)(F)F)cc3F)nn2)cc(=O)[nH]1 (single isomer, unassigned) [Example 27, (R)- or (S)-6-(1-(1-(2-fluoro-4-(trifluoromethyl)phenyl)ethyl)-1H-1,2,3-triazol-4-yl)-2-methylpyrimidin-4(3H)-one]",7.33
20,"Cc1nc(-c2nnn3c2CCC[C@@]3(C)c2ccc(C(F)(F)F)cc2)cc(=O)[nH]1 (single isomer, unassigned) [Example 55]",6.63
21,"CCc1ccc(C(C)n2ncc(-c3cc(=O)[nH]c(C)n3)n2)c(Cl)c1 (single isomer, unassigned) [Example 7, (R)- or (S)-6-(2-(1-(2-chloro-4-ethylphenyl)ethyl)-2H-1,2,3-triazol-4-yl)-2-methylpyrimidin-4(3H)-one]",7.22
22,"Cc1nc(-c2nnn([C@H](C)c3ccc(C(F)(F)F)cc3Cl)c2C)cc(=O)[nH]1 (single isomer, unassigned) [Example 43]",8.34
23,"Cc1nc(-c2cn(C(C)c3cc(F)c(C(F)(F)F)cc3F)nn2)cc(=O)[nH]1 (single isomer, unassigned) [Example 23, (R)- or (S)-6-(1-(1-(2,5-difluoro-4-(triufluoromethyl)phenyl)ethyl)-1H-1,2,3-triazol-4-yl)-2-methylpyrimidin-4(3H)-one]",6.69
